What all share (type): physicochemical
Data set [1] in a line: lambda max (Vis) of photochromic test square polymerizates, UV-Visible spectrophotometer. The conditions noted are these: activated (colored) form in polymer test square (BPA 2EO DMA / poly(ethylene glycol) 600 dimethacrylate), 1.5×10^-3 molal. On the procedure:
(§1) Testing was done with the photochromic compounds prepared in Examples 1-14 in the following manner. A quantity of each photochromic compound, except Compounds 13A and 14, calculated to yield a 1.5×10^-3 molal solution was added to a flask containing 50 grams of a monomer blend of 4 parts ethoxylated bisphenol A dimethacrylate (BPA 2EO DMA), 1 part poly(ethylene glycol) 600 dimethacrylate, and 0.033 weight percent 2,2'-azobis(2-methyl propionitrile) (AIBN). Each photochromic compound was dissolved into the monomer blend by stirring and gentle heating. After a clear solution was obtained, it was poured into a flat sheet mold having the interior dimensions of 2.2 mm×6 inches (15.24 cm)×6 inches (15.24 cm). The mold was sealed and placed in a horizontal air flow, programmable oven programmed to increase the temperature from 40° C. to 95° C. over a 5 hour interval, hold the temperature at 95° C. for 3 hours, lower it to 60° C. over a 2 hour interval and then hold at 60° C. for 16 hours. After the mold was opened, the polymer sheet was cut using a diamond blade saw into 2 inch (5.1 centimeters) test squares.
The ΔOD/min, which represents the sensitivity of the photochromic compound's response to UV light, was measured over the first five (5) seconds of UV exposure, then expressed on a per minute basis. The saturation optical density (ΔOD@ Saturation) was taken under identical conditions as the ΔOD/min, except UV exposure was continued for 15 minutes. The lambda max (Vis) is the wavelength in nanometers (nm) in the visible spectrum at which the maximum absorption of the activated (colored) form of the photochromic compound in a test square occurs. The lambda max (Vis) wavelength was determined by testing the photochromic test square polymerizates of Part A in a Varian Cary 3 UV-Visible spectrophotometer. The Bleach Rate (T 1/2) is the time interval in seconds for the absorbance of the activated form of the photochromic compound in the test squares to reach one half the highest absorbance at room temperature (72° F., 22.2° C.) after removal of the source of activating light.

The nature of data set [2]: photochromic response of test squares on an optical bench (sensitivity, saturation, bleach rate). To be noted: for ΔOD @ Saturation: UV exposure continued for 15 minutes; for ΔOD @ Saturation / Sensitivity ΔOD/min: 72° F. (22.2° C.); for Sensitivity ΔOD/min: first five (5) seconds of UV exposure, expressed per minute; for Bleach Rate T 1/2: time to one half the highest absorbance at room temperature (72° F., 22.2° C.) after removal of activating light. On the procedure:
as §1
The photochromic test squares prepared in Part A were tested for photochromic response on an optical bench. Prior to testing on the optical bench, the photochromic test squares were exposed to 365 nanometer ultraviolet light for about 15 minutes to activate the photochromic compounds and then placed in a 76° C. oven for about 15 minutes to bleach or inactivate the photochromic compounds. The test squares were then cooled to room temperature, exposed to fluorescent room lighting for at least 2 hours and then kept covered for at least 2 hours prior to testing on an optical bench maintained at 72° F. (22.2° C.). The bench was fitted with a 150 watt Xenon arc lamp, a remote controlled shutter, a copper sulfate bath acting as a heat sink for the arc lamp, a Schott WG-320 nm cut-off filter which removes short wavelength radiation; neutral density filter(s) and a sample holder in which the square to be tested was inserted. The power output of the optical bench, i.e., the dosage of light that the sample lens would be exposed to, was calibrated with a photochromic test square used as a reference standard. […] The UV-A detector was placed into the sample holder and the light output was measured. Adjustments to the power output were made by increasing or decreasing the lamp wattage or by adding or removing neutral density filters in the light path.
A monitoring, collimated beam of light from a tungsten lamp was passed through the square at a small angle (approximately 30°) normal to the square. After passing through the square, the light from the tungsten lamp was directed to a detector through Spectral Energy Corp. GM-200 monochromator set at the previously determined visible lambda max of the photochromic compound being measured. The output signals from the detector were processed by a radiometer.
Change in optical density (ΔOD) was determined by inserting a test square in the bleached state into the sample holder, adjusting the transmittance scale to 100%, opening the shutter from the Xenon lamp to provide ultraviolet radiation to change the test square from the bleached state to an activated (i.e., darkened) state, measuring the transmittance in the activated state, and calculating the change in optical density according to the formula: ΔOD=log(100/% Ta), where % Ta is the percent transmittance in the activated state and the logarithm is to the base 10.
The ΔOD/min, which represents the sensitivity of the photochromic compound's response to UV light, was measured over the first five (5) seconds of UV exposure, then expressed on a per minute basis. The saturation optical density (ΔOD@ Saturation) was taken under identical conditions as the ΔOD/min, except UV exposure was continued for 15 minutes. […]

Data set [3] can be described thus: lambda max (Vis) of compound in solution, UV/Visible spectrophotometer. The conditions noted are these: solution in diethylene glycol dimethyl ether, approximately 0.5 milligram per milliliter. On the procedure:
The compound of Example 13 identified as 13A and the compound of Example 14 were dissolved in diethylene glycol dimethyl ether. The concentration of the resulting solution was approximately 0.5 milligram per milliliter. Each solution was tested in a UV/Visible Spectrophotometer to determine the lambda max (Vis).

For `O=C1OCOc2c1c1c(c3ccccc23)OC(c2ccccc2)(c2ccccc2)C=C1` [Example 1, 7,7-diphenyl-4-oxo-4H-7H-[1,3]dioxino[5'4':3,4]naphtho[1,2-b]pyran], the “lambda max (Vis)” value in data set [1] was found to be 472 nanometers. Also, in data set [2], the “ΔOD @ Saturation” value was found to be 1.89, the “Sensitivity ΔOD/min” value is recorded as 0.76 ΔOD/min and the “Bleach Rate T 1/2” value came to 3.67 min.

For `COc1ccc(C2(c3ccc(OC)cc3)C=Cc3c4c(c5ccccc5c3O2)OCOC4=O)cc1` [Example 2, 7,7-di(4-methoxyphenyl)-4-oxo-4H-7H-[1,3]dioxino[5',4':3,4]naphtho[1,2-b]pyran], in data set [1], the “lambda max (Vis)” value stood at 510 nanometers. Also, in data set [2], the “ΔOD @ Saturation” value was determined as 0.67, the “Sensitivity ΔOD/min” value is 0.74 ΔOD/min and the “Bleach Rate T 1/2” value was found to be 0.85 min.

As for `CCCCCC1OC(=O)c2c3c(c4ccccc4c2O1)OC(c1ccccc1)(c1ccc(OC)cc1)C=C3` (centres unmarked) [Example 3, 7-(4-methoxyphenyl)-7-phenyl-2-pentyl-4-oxo-4H-7H-[1,3]dioxino[5',4':3,4]naphtho[1,2-b]pyran], the “lambda max (Vis)” value in data set [1] is reported as 496 nanometers. Besides, in data set [2], the “ΔOD @ Saturation” value is on record as 1.28, the “Sensitivity ΔOD/min” value is recorded as 0.75 ΔOD/min and the “Bleach Rate T 1/2” value was determined as 1.95 min.

For `CCC1OC(=O)c2c3c(c4ccccc4c2O1)OC(c1ccccc1)(c1ccccc1)C=C3` (centres unmarked) [Example 4, 7,7-diphenyl-2-ethyl-4-oxo-4H-7H-[1,3]dioxino[5',4':3,4]naphtho[1,2-b]pyran], in data set [1], the “lambda max (Vis)” value is 474 nanometers. In data set [2], the “ΔOD @ Saturation” value was found to be 1.71, the “Sensitivity ΔOD/min” value is 0.67 ΔOD/min and the “Bleach Rate T 1/2” value came out at 4.13 min.

With `CCCCCC1OC(=O)c2c3c(c4ccccc4c2O1)OC(c1ccccc1)(c1ccccc1)C=C3` (centres unmarked) [Example 5, 7,7-diphenyl-2-pentyl-4-oxo-4H-7H-[1,3]dioxino[5',4':3,4]naphtho[1,2-b]pyran], in data set [1], the “lambda max (Vis)” value turned out to be 478 nanometers. In addition, in data set [2], the “ΔOD @ Saturation” value is 1.74, the “Sensitivity ΔOD/min” value is 0.67 ΔOD/min and the “Bleach Rate T 1/2” value turned out to be 4.23 min.

For the molecule `CC(C)CC1OC(=O)c2c3c(c4ccccc4c2O1)OC(c1ccccc1)(c1ccccc1)C=C3` (centres unmarked) [Example 6, 7,7-diphenyl-2-(2-methylpropyl)-4-oxo-4H-7H-[1,3]dioxino[5',4':3,4]naphtho[1,2-b]pyran], in data set [1], the “lambda max (Vis)” value was determined as 475 nanometers. Besides, in data set [2], the “ΔOD @ Saturation” value turned out to be 1.72, the “Sensitivity ΔOD/min” value is recorded as 0.64 ΔOD/min and the “Bleach Rate T 1/2” value is 4 min.

On to `O=C1OC(c2ccccc2)Oc2c1c1c(c3ccccc23)OC(c2ccccc2)(c2ccccc2)C=C1` (centres unmarked) [Example 7, 2,7,7-triphenyl-4-oxo-4H-7H-[1,3]dioxino[5',4':3,4]naphtho[1,2-b]pyran], for which, in data set [1], the “lambda max (Vis)” value is on record as 476 nanometers. In data set [2], the “ΔOD @ Saturation” value was 1.46, the “Sensitivity ΔOD/min” value is recorded as 0.60 ΔOD/min and the “Bleach Rate T 1/2” value was 4.13 min.

As for `CC(c1ccccc1)C1OC(=O)c2c3c(c4ccccc4c2O1)OC(c1ccccc1)(c1ccccc1)C=C3` (centres unmarked) [Example 8, 7,7-diphenyl-2-(1-phenylethyl)-4-oxo-4H-7H-[1,3]dioxino[5',4':3,4]naphtho[1,2-b]pyran], in data set [1], the “lambda max (Vis)” value came to 475 nanometers. Besides, in data set [2], the “ΔOD @ Saturation” value came to 1.58, the “Sensitivity ΔOD/min” value is 0.63 ΔOD/min and the “Bleach Rate T 1/2” value was 4.18 min.

Consider `Cn1c(=O)oc2c(c3c(c4ccccc42)OC(c2ccccc2)(c2ccccc2)C=C3)c1=O` [Example 9, 3-methyl-7,7-diphenyl-2,4-dioxo-2,3,4,7-tetrahydro[1,3]oxazino[5',6':3,4]naphtho[1,2-b]pyran], for which the “lambda max (Vis)” value in data set [1] was found to be 469 nanometers. In data set [2], the “ΔOD @ Saturation” value is given as 0.40, the “Sensitivity ΔOD/min” value was 0.41 ΔOD/min and the “Bleach Rate T 1/2” value was found to be 0.85 min.

For `CCOC(=O)CCn1c(=O)oc2c(c3c(c4ccccc42)OC(c2ccccc2)(c2ccccc2)C=C3)c1=O` [Example 10, 3-(2-ethoxycarbonylethyl)-7,7-diphenyl-2,4-dioxo-2,3,4,7-tetrahydro[1,3]oxazino[5',6':3,4]naphtho[1,2-b]pyran], the “lambda max (Vis)” value in data set [1] amounted to 468 nanometers. In addition, in data set [2], the “ΔOD @ Saturation” value is recorded as 0.38, the “Sensitivity ΔOD/min” value is reported as 0.44 ΔOD/min and the “Bleach Rate T 1/2” value is 0.7 min.

Take `CCCCCCn1c(=O)oc2c(c3c(c4ccccc42)OC(c2ccccc2)(c2ccccc2)C=C3)c1=O` [Example 11, 3-hexyl-7,7-diphenyl-2,4-dioxo-2,3,4,7-tetrahydro[1,3]oxazino[5',6':3,4]naphtho[1,2-b]pyran]: the “lambda max (Vis)” value in data set [1] turned out to be 471 nanometers. Also, in data set [2], the “ΔOD @ Saturation” value was 0.41, the “Sensitivity ΔOD/min” value is 0.46 ΔOD/min and the “Bleach Rate T 1/2” value came to 0.883 min.

For `C=C(C)C(=O)OCCn1c(=O)oc2c(c3c(c4ccccc42)OC(c2ccccc2)(c2ccccc2)C=C3)c1=O` [Example 12, 3-(2-methacryloyloxyethyl)-7,7-diphenyl-2,4-dioxo-2,3,4,7-tetrahydro[1,3]oxazino[5',6':3,4]naphtho[1,2-b]pyran], in data set [1], the “lambda max (Vis)” value amounted to 467 nanometers. In data set [2], the “ΔOD @ Saturation” value turned out to be 0.32, the “Sensitivity ΔOD/min” value was 0.26 ΔOD/min and the “Bleach Rate T 1/2” value was 2.33 min.

As for `O=C1OC(c2ccccc2)(c2ccccc2)Nc2c1c1c(c3ccccc23)OC(c2ccccc2)(c2ccccc2)C=C1` [Example 13A, 2,2,7,7-tetraphenyl-4-oxo-2,3,4,7-tetrahydro-1H-[1,3]oxazino[5',4':3,4]naphtho[1,2-b]pyran], the “lambda max (Vis)” value in data set [3] stood at 471 nanometers.

On to `CC1(C)Cc2c(c3c(c4ccccc24)OC(c2ccccc2)(c2ccccc2)C=C3)C(=O)O1` [Example 14], for which the “lambda max (Vis)” value in data set [3] worked out at 460 nanometers.

The values are drawn from patent publication US6022497A, “Photochromic six-membered heterocyclic-fused naphthopyrans” (PPG Industries Ohio, Inc., priority 1999, dated 2000).
